Measured values from ChEMBL document CHEMBL5728837, “Non-fused tricyclic compounds” (2021).

Assay: YAP Reporter Assay: HEK293T cells stably transfected with 8XTBD luciferase reporter and pRLTK in 384-well plates were treated with the test compounds, starting from 3 μM (final concentration in assay plate), 1:3 dilution, and 10 points in quadruplicates. Post 24-hr incubation with compounds at 37° C. and 5% CO2, cells were lysed and 8XTBD-driven firefly luciferase and control TK-driven renilla luciferase activities were measured using Promega Dual-Luciferase Reporter Assay System.Reagents: The reagents used for this study are: DMEM: Invitrogen #11960077, Dual-Glo Luciferase Assay System: Promega-E2980, Puromycin Dihydrochloride: Invitrogen-A1113803, 384-well plate: PerkinElmer-6007480, L-GLUTAMINE: Invitrogen-25030164, Hygromycin B: Invitrogen-10687010, and Penicillin-Streptomycin: Merk-TMS-AB2-CMedia: The media used for this assay were: Culture Medium: DMEM+1 ug/mL puromycin+200 ug/mL hygromycin (with 10% FBS+1 mM L-glutamine); and Assay Medium: DMEM (with 10% FBS+1 mM L-glutamine+1× P/S).Cell Plating: The appropriate media was warmed at 37° C. by water bath: Culture Medium, Assay Medium, 1*D-PBS, 0.05% trypsin-EDTA. The cells were trypsinized after removing all media, then washed with 1*sterile D-PBS and then with 2 ml 0.05% trypsin-EDTA. The cells were then incubated at RT for one minute. Then 10 ml/75 cm2 flask Assay Medium was added to each flask. Using a 10 ml pipette, the cells were then gently resuspended in the media, until the clumps completely disappeared. The cells were then transferred into 50 ml centrifuge tubes and were centrifuged at 800 rpm for 5 mins. The medium was removed and the cells were resuspended with Assay Medium. An aliquot of cells was used to count the cell density (cells/nil). The cell suspension was then diluted with Assay Medium to a concentration of 6×10^4 cells/ml. 50 ul cells suspension was then plated to 384-well plate (PerkinElmer-6007480), 3×10^3 cells/well and the cells were incubated in an incubator at 37° C., 5% CO2.Compound Treatment: In the afternoon (incubation of the plate with 3-4 hrs), the test compounds were added by Echo, starting from 3 uM (final concentration in the assay plate), 1:3 dilution, 10 points, quadruplicates. The plate was placed at 37° C., 5% CO2 incubator for 24 hrs.Detection: The Dual-Glo Luciferase Reagent was prepared by transferring the contents of one bottle of Dual-Glo Luciferase Buffer to one bottle of Dual-Glo Luciferase Substrate to create the Dual-Glo Luciferase Reagent. Mixing was performed by inversion until the substrate was thoroughly dissolved. After mixing, the reagent was aliquoted into 15 ml tubes. In the afternoon (24 hrs post compound treatment), the DMEM+ medium in the 384 well plates were aspirated by Microplate Washer.Measuring firefly luciferase activity: 20 ul Dual-Glo Luciferase Reagent was added to the 384-well plates. The plates were protected from light to prevent interference with the assay. The plates were shaken for 1 min followed centrifuging plates at 1000 rpm for 30 seconds. After waiting at least 10 minutes, the firefly luminescence was measured by Envision.Measuring renilla luciferase activity: 20 ul Stop-Glo Reagent was added to the 384-well plates. The plates were shaken for lmin and then centrifuged at 1000 rpm for 30 seconds. After waiting at least 10 minutes, the renilla luminescence was measured by Envision.
Conditions: HEK-293T, 24 h

IC50	Structure (SMILES)
in the range around 550 nM	NCC(CO)n1nnc(-c2ccccc2Nc2ccc(C(F)(F)F)cc2)n1 (configuration not stated)
in the range around 550 nM	OCCn1nnc(-c2ccccc2Nc2ccc(Cl)c(Cl)c2)n1
< 100 nM	OCCn1nnc(-c2cc(C3CC3)ccc2Nc2ccc(C(F)(F)F)cc2)n1
in the range around 3000 nM	OCCn1nnc(-c2ccccc2Nc2cc(Cl)c(Cl)c(Cl)c2)n1
in the range around 550 nM	OCCn1nnc(-c2cc(OC(F)(F)F)ccc2Nc2ccc(C(F)(F)F)cc2)n1
< 100 nM	CCc1ccc(Nc2ccc(C(F)(F)F)cc2)c(-c2nnn(CCO)n2)c1
< 100 nM	OCC(CO)n1nnc(-c2ccccc2Nc2ccc(C(F)(F)F)cc2)n1
< 100 nM	OCCn1nnc(-c2cc(OC(F)F)ccc2Nc2ccc(C(F)(F)F)cc2)n1
in the range around 550 nM	OCCn1nnc(-c2cc(C(F)(F)F)ccc2Nc2ccc(C(F)(F)F)cc2)n1
< 100 nM	FC(F)(F)c1ccc(Nc2ccccc2-c2nnn(C3COCOC3)n2)cc1
in the range around 550 nM	OCCn1nnc(-c2cc(C(F)F)ccc2Nc2ccc(C(F)(F)F)cc2)n1
< 100 nM	OCCn1nnc(-c2cc(Br)ccc2Nc2ccc(C(F)(F)F)cc2)n1
